The values that follow come from US20200277268A1, “PENTAFLUOROPHENYL SULFONAMIDE COMPOUNDS, COMPOSITIONS AND USES THEREOF” (DALRIADA THERAPEUTICS INC., priority 2017, published 2020).

Format in all cases: cell-based
In test [1] the test system is MV4-11. The test is described as follows: CellTiter-Blue cell viability, MV4-11. The note with it: for pIC50: Homo sapiens, MV4-11, AML cell line, 72 hours; for potency relative to parent I-1 analogue: cell viability, Table 1; for activity in AML cells: AML cells (MV4-11 and MOLM13). The protocol:
(§1) The anti-cancer efficacy of exemplary compounds of the application were assessed in vitro against different cancer cell lines. Cell viability was examined following treatment at various concentrations of inhibitor (0.097656-50 μM) using a CellTiter-Blue® cell viability assay. 1×10^4 cells/well were plated in 96-well assay plates in culture medium. All cells were grown in DMEM, IMDM and RPMI-1640 supplemented with 10% fetal bovine serum (FBS). In some instances, FBS was removed for periods ranging from 16-24 hours, and re-introduced with test compound addition. After 24 hrs, test compounds and vehicle controls were added to appropriate wells such that the final volume was 100 μl in each well. The cells were cultured for the desired test exposure period (72 hours) at 37° C. and 5% CO2. The assay plates were removed from 3° C. incubator and 20 μl/well of CellTiter-Blue® Reagent was added. The plates were incubated using standard cell culture conditions for 1-4 hours. Afterwards, the plates were shaken for 10 seconds and florescence was recorded at 560/590 nm using a Cytation 3 spectrophotometer. IC50 values were determined using non-linear regression analysis with GraphPad Prism 6.0 (GraphPad Software Inc.).

Test [2] relates to healthy human lung cells (MRC9). The test is described as follows: CellTiter-Blue cell viability, MRC9. Conditions: non-cancerous, 72 hours. The protocol:
as §1
On the technique in general: Alamar Blue is a resazurin reagent that responds to reducing activity.

The test system of test [3] is MOLM13. The test is described as follows: CellTiter-Blue cell viability, MOLM13. Conditions: Homo sapiens, MOLM-13; AML cell line, 72 hours. The protocol: as §1

The structures appear in SMILES notation. pIC50: −log10 of the molar value. Where only a bound is given, the exact number is not on record here.

One may read the pIC50 as −log10 of the IC50, conventionally taken in molar units. A higher pIC50 goes with a small IC50. `O=S(=O)(c1c(F)c(F)c(F)c(F)c1F)N(Cc1ccc(F)cc1F)C1CC1` [Compound I-35, N-cyclopropyl-N-(2,4-difluorobenzyl)-2,3,4,5,6-pentafluorobenzenesulfonamide]: the pIC50 in test [1] is 5.77; in test [2], 4.87; in test [3], 5.40.

`CCOC(=O)C1(N(Cc2ccc(F)cn2)S(=O)(=O)c2c(F)c(F)c(F)c(F)c2F)CC1` [Compound I-18, Ethyl 1-((2,3,4,5,6-pentafluoro-N-((5-fluoropyridin-2-yl)methyl)phenyl)sulfonamido)cyclopropane-1-carboxylate]: the pIC50 in test [1] is 5.55; in test [3] it was 5.21.

Turning to `COc1ccc(CN(C2CC2)S(=O)(=O)c2c(F)c(F)c(F)c(F)c2F)cc1F` [Compound I-17, N-cyclopropyl-2,3,4,5,6-pentafluoro-N-(3-fluoro-4-methoxybenzyl)benzenesulfonamide], the pIC50 in test [1] was 6.10; in test [2] it was 4.79; in test [3], 6.20.

For `COC(=O)c1ccc(CN(C2CC2)S(=O)(=O)c2c(F)c(F)c(F)c(F)c2F)cc1` [Compound I-27, Methyl 4-(((N-cyclopropyl-2,3,4,5,6-pentafluorophenyl)sulfonamido)methyl)benzoate], the pIC50 in test [1] was 5.70; in test [3] it was 6.05.

In the case of `O=S(=O)(NC1(c2ccccc2)CC1)c1c(F)c(F)c(F)c(F)c1F` [Comparative Example 7, 2,3,4,5,6-pentafluoro-N-(1-phenylcyclopropyl)benzenesulfonamide, reference compound], the pIC50 in test [1] is 4.51.

As for `O=S(=O)(c1c(F)c(F)c(F)c(F)c1F)N(Cc1ccncc1)C1CC1` [Compound I-9, N-cyclopropyl-2,3,4,5,6-pentafluoro-N-(pyridin-4-ylmethyl)benzenesulfonamide], the pIC50 was 5.74 in test [1] and 5.79 in test [3].

Regarding `CS(=O)(=O)c1ccc(CN(C2CC2)S(=O)(=O)c2c(F)c(F)c(F)c(F)c2F)cc1` [Compound I-24, N-cyclopropyl-2,3,4,5,6-pentafluoro-N-(4(methylsulfonyl)benzyl)benzenesulfonamide], the pIC50 is 5.94 in test [1] and 5.87 in test [3].

In the case of `O=S(=O)(c1c(F)c(F)c(F)c(F)c1F)N(Cc1cccc(F)c1)C1CC1` [Compound I-11, N-cyclopropyl-2,3,4,5,6-pentafluoro-N-(3-fluorobenzyl)benzenesulfonamide], the pIC50 in test [1] was 5.77; in test [2], 5.05; in test [3], 5.47.

Take `O=C(OCc1ccccc1)c1ccc(CN(C2CC2)S(=O)(=O)c2c(F)c(F)c(F)c(F)c2F)cc1` [Compound I-41, Benzyl 4-(((N-cyclopropyl-2,3,4,5,6-pentafluorophenyl)sulfonamido)methyl)benzoate]: the pIC50 in test [1] was 6.00; in test [3] it was 5.49.

For the compound `O=S(=O)(Nc1ccc(F)cc1)c1c(F)c(F)c(F)c(F)c1F` [Comparative Example 5, 2,3,4,5,6-pentafluoro-N-(4-fluorophenyl)benzenesulfonamide, reference compound], in test [1], the pIC50 is 5.36 and the “potency relative to parent I-1 analogue” value was “less potent”. In test [3], this compound had a pIC50 of 4.75.

With `O=S(=O)(c1c(F)c(F)c(F)c(F)c1F)N(CC#Cc1ccccc1)C1CC1` [Compound I-31, N-cyclopropyl-2,3,4,5,6-pentafluoro-N-(3-phenylprop-2-yn-1-yl)benzenesulfonamide], the pIC50 in test [1] is 5.82; in test [2], 4.81; in test [3], 5.28.

Turning to `O=S(=O)(c1c(F)c(F)c(F)c(F)c1F)N(Cc1ccoc1)C1CC1` [Compound I-33], the values for the pIC50 in test [1], in test [2] and in test [3] were 5.45, 4.66 and 5.41, respectively.

As to `Nc1ccc(-c2ccccc2CN(C2CC2)S(=O)(=O)c2c(F)c(F)c(F)c(F)c2F)cc1` [Compound I-38, N-((4′-amino-[1,1′-biphenyl]-2-yl)methyl)-N-cyclopropyl-2,3,4,5,6-pentafluorobenzenesulfonamide], the pIC50 in test [1] is 5.84; in test [2] it was 4.88; in test [3], 5.07.

On to `O=S(=O)(c1c(F)c(F)c(F)c(F)c1F)N(Cc1ccccc1)Cc1ccc(F)cc1` [Compound I-3], for which the pIC50 in test [1] is 6.23; in test [2] it was 4.84; in test [3] it was 5.03.

Turning to `Nc1cccc(-c2ccc(CN(C3CC3)S(=O)(=O)c3c(F)c(F)c(F)c(F)c3F)cc2)c1` [Compound I-39, N-((3′-amino-[1,1′-biphenyl]-4-yl)methyl)-N-cyclopropyl-2,3,4,5,6-pentafluorobenzenesulfonamide], the pIC50 is 5.82 in test [1], 4.80 in test [2] and 4.83 in test [3].

In the case of `CC(=O)N(Cc1ccc(F)cc1)S(=O)(=O)c1c(F)c(F)c(F)c(F)c1F` [Compound I-4, N-(4-fluorobenzyl)-N-((perfluorophenyl)sulfonyl)acetamide], the pIC50 was 5.68 in test [1], 4.60 in test [2] and 5.29 in test [3].

On to `O=S(=O)(c1c(F)c(F)c(F)c(F)c1F)N(Cc1ccc(F)cc1)c1ccccc1` [Compound I-53, 2,3,4,5,6-pentafluoro-N-(4-fluorobenzyl)-N-phenylbenzenesulfonamide], for which the pIC50 was 5.85 in test [1] and 5.82 in test [3].

For `CN(Cc1ccc(F)cc1)S(=O)(=O)c1c(F)c(F)c(F)c(F)c1F` [Compound I-58, 2,3,4,5,6-pentafluoro-N-(4-fluorobenzyl)-N-methylbenzenesulfonamide], the pIC50 in test [1] was 6.36; in test [3] it was 5.51.

Consider `COc1cc(CN(C2CC2)S(=O)(=O)c2c(F)c(F)c(F)c(F)c2F)cc(OC)c1O` [Compound I-29, N-cyclopropyl-2,3,4,5,6-pentafluoro-N-(4-hydroxy-3,5-dimethoxybenzyl)benzenesulfonamide], for which the results for the pIC50 in test [1], in test [2] and in test [3] were 5.71, 5.01 and 5.40, respectively.

On to `COc1cc(CN(C2CC2)S(=O)(=O)c2c(F)c(F)c(F)c(F)c2F)cc(OC)c1` [Compound I-22, N-cyclopropyl-N-(3,5-dimethoxybenzyl)-2,3,4,5,6-pentafluorobenzenesulfonamide], for which the pIC50 was 5.33 in test [1] and 5.35 in test [3].

Turning to `O=S(=O)(NCc1ccc(F)cc1)c1c(F)c(F)c(F)c(F)c1F` [Comparative Example 4, 2,3,4,5,6-pentafluoro-N-(4-fluorobenzyl)benzenesulfonamide, reference compound], the pIC50 was 5.51 in test [1], 4.77 in test [2] and 5.40 in test [3]. In addition, the “potency relative to parent I-1 analogue” value in test [1] was “less potent”.

`O=S(=O)(c1c(F)c(F)c(F)c(F)c1F)N(Cc1ccccn1)C1CC1` [Compound I-32, N-cyclopropyl-2,3,4,5,6-pentafluoro-N-(pyridin-2-ylmethyl)benzenesulfonamide]: the negative logarithm of the IC50 (pIC50) in test [1] is 5.82; in test [3], 5.89.

In the case of `O=S(=O)(c1c(F)c(F)c(F)c(F)c1F)N(C1CC1)C(c1ccc(F)cc1)C(F)(F)F` (stereo not shown) [Compound I-10, N-cyclopropyl-2,3,4,5,6-pentafluoro-N-(2,2,2-trifluoro-1-(4-fluorophenyl)ethyl)benzenesulfonamide], the pIC50 in test [1] was 6.01; in test [3], 5.01.

With `O=S(=O)(c1ccccc1)N(Cc1ccc(F)cc1)C1CC1` [Comparative Example 2, N-cyclopropyl-N-(4-fluorobenzyl)benzenesulfonamide, reference compound], the “activity in AML cells” value in test [1] is “inactive”. For the same compound, the pIC50 in test [1] and in test [3] was ≤ 4.60 in each case.

On to `O=S(=O)(c1c(F)c(F)c(F)c(F)c1F)N(Cc1ccc(F)cc1)C1CCCC1` [Compound I-5, N-cyclopentyl-2,3,4,5,6-pentafluoro-N-(4-fluorobenzyl)benzenesulfonamide], for which the values for the pIC50 in test [1] and in test [3] were 6.15 and 5.70, respectively.

Take `O=S(=O)(c1c(F)c(F)c(F)c(F)c1F)N(Cc1ccc(F)cc1)C1CCOC1` (stereo not shown) [Compound I-51, 2,3,4,5,6-pentafluoro-N-(4-fluorobenzyl)-N-(tetrahydrofuran-3-yl)benzenesulfonamide]: the pIC50 in test [1] was 5.32; in test [3], 5.47.

Consider `O=S(=O)(c1c(F)c(F)c(F)c(F)c1F)N(Cc1ccccc1)C1CC1` [Compound I-6, N-benzyl-N-cyclopropyl-2,3,4,5,6-pentafluorobenzenesulfonamide], for which the pIC50 in test [1] is 5.89; in test [2], 4.76; in test [3], 5.89.

For `O=S(=O)(c1c(F)c(F)c(F)c(F)c1F)N(Cc1ccncc1)Cc1ccc(F)cc1` [Compound I-52], the pIC50 was 5.39 in test [1] and 5.46 in test [3].

As to `O=S(=O)(c1c(F)c(F)cc(F)c1F)N(Cc1ccc(F)cc1)C1CC1` [Comparative Example 8, N-cyclopropyl-2,3,5,6-tetrafluoro-N-(4-fluorobenzyl)benzenesulfonamide, reference compound], in test [1], the “activity in AML cells” value is “inactive” and the pIC50 is < 4.90. In test [3], the pIC50 is < 4.60.
